Laboratory results published in publication PMC9896599, “Biogenesis of flavor-related linalool is diverged and genetically conserved in tree peony (Paeonia × suffruticosa)” (Horticulture Research, 2022).

Legend:
Type in all cases: biochemical
Settings in all cases: 10 uM GPP, 30 mM KCl, 5 mM MgCl2, 1 mM MnCl2, 50 mM HEPES pH 7.5, 30 °C, 1 h
PdTPS3 = target: T1, PdTPS3 (Paeonia delavayi, UniProt A0A9E8G7R5); test: GC-MS of headspace product (geraniol)
T1 construct: full-length cDNA, C-terminal His6, E. coli Transetta (DE3), Ni-NTA purified; the five PdTPS are 553-600 residues, about 65 kDa; plastid-localized

PdTPS1 = target: T2, PdTPS1 (Paeonia delavayi, UniProt A0A9E8GEC8); test: GC-MS of headspace product (linalool)
T2 construct: full-length cDNA, C-terminal His6, E. coli Transetta (DE3), Ni-NTA purified; the five PdTPS are 553-600 residues, about 65 kDa; plastid-localized

PdTPS4 = target: T3, PdTPS4 (Paeonia delavayi, UniProt A0A9E8GE34); test: GC-MS of headspace product (linalool)
T3 construct: full-length cDNA, C-terminal His6, E. coli Transetta (DE3), Ni-NTA purified; the five PdTPS are 553-600 residues, about 65 kDa; plastid-localized
T3 sequence (A0A9E8GE34 entry or part of it): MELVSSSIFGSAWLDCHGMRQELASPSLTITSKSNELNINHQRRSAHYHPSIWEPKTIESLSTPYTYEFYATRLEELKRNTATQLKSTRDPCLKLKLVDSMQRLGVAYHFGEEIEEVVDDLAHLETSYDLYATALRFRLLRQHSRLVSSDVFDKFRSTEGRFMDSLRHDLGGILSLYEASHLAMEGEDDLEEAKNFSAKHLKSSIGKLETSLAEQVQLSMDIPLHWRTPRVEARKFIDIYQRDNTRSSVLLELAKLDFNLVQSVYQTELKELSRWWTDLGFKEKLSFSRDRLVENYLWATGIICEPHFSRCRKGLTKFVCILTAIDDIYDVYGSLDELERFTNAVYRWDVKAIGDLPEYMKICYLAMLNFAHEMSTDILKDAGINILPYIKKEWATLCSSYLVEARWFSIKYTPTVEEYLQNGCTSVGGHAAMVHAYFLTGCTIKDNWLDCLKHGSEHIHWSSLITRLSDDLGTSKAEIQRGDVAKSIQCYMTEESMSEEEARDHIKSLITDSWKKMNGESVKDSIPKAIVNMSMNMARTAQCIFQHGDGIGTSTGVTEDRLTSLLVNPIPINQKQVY

T2 sequence (A0A9E8GEC8 entry or part of it): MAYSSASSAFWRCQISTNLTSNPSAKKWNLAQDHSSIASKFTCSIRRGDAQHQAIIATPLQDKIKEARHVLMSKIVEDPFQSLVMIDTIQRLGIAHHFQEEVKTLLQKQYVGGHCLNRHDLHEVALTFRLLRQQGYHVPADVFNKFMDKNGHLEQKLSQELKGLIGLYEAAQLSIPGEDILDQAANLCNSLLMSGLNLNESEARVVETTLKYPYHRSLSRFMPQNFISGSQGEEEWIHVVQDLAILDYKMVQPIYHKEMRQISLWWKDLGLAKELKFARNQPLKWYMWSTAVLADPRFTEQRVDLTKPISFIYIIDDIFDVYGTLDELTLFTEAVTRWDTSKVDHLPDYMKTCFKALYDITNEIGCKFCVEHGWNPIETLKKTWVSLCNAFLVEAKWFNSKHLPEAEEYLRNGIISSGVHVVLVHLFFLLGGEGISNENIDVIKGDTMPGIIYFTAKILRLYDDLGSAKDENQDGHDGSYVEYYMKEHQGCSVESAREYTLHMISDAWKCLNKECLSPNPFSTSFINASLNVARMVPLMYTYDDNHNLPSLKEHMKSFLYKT
T1 sequence (A0A9E8G7R5 entry or part of it): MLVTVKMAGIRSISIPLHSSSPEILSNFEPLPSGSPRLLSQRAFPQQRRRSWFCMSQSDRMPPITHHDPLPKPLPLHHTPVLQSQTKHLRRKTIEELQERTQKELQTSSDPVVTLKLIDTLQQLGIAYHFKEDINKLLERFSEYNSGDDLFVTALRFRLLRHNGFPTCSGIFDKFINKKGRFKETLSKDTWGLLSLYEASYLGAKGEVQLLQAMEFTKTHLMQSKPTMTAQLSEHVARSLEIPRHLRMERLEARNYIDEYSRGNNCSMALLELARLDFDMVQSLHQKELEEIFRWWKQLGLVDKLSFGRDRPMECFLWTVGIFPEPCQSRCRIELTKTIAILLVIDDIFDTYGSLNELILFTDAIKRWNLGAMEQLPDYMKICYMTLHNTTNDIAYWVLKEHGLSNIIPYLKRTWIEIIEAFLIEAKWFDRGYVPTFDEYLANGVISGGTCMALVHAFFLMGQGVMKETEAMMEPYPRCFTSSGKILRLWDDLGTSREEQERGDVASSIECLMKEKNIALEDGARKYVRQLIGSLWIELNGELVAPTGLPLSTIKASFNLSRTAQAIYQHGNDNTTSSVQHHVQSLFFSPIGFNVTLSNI

CC(C)=CCC/C(C)=C/COP(=O)(O)OP(=O)(O)O [GPP]
GC-MS of headspace product (geraniol) (PdTPS3): The reaction products catalyzed by PdTPS3 with GPP formed geraniol rather than linalool
GC-MS of headspace product (linalool) (PdTPS1): both PdTPS1 and PdTPS4 catalyzed the formation of acyclic terpene alcohols with linalool
GC-MS of headspace product (linalool) (PdTPS4): both PdTPS1 and PdTPS4 catalyzed the formation of acyclic terpene alcohols with linalool
